Measurements reported in patent US20230235374A1, “High Throughput Assays for Detecting Translation Readthrough Inducers” (The Trustees of the University of Pennsylvania, priority 2021, published 2023).

Columns and labels:
eRF1 = molecular target: T1, eRF1 (Saccharomyces cerevisiae, UniProt P12385); assay: [3H]-AzAt photoaffinity labeling of isolated eRF1; assay type: binding
T1 construct: made in house; host or cells: E. coli BL21(DE3) CodonPlus
Method: (§1) Photoaffinity labeling with [^3H]-AzAt. Samples in Buffer 4, typically 20 μL, were incubated in the dark (20 min for Stop-POST5 and 80S-IRES complexes, 2 min for release factors) with various concentrations of [^3H]-AzAt at 37° C., transferred to a UV-transparent cuvette which was covered with parafilm to prevent evaporation, and irradiated in a Rayonet photochemical reactor equipped with 300 nm UV lamps for 5 min at room temperature. This was followed by quenching with 2 mM DTT at 37° C. for 5 min under ambient light. The irradiation time gave complete photolysis of the phenyl azide moiety in AzAt. Photolysis was also complete at 5 min in the presence of 1 mM ataluren, ruling out internal filtering effects.
(§2) Photoaffinity labeling of release factors. Solutions containing eRF1 (10 μM), eRF3 (20 μM) and 1 mM GMPPMP were pre-incubated at 37° C. for 2 min to form the ternary complex prior to photolabeling with [^3H]-AzAt. After quenching, reaction mixtures were loaded onto a 4-15% mini protean SDS-PAGE gel for protein separation and isolation. Gel slices containing eRF1 or eRF3, as shown by Coomassie Blue R250 staining, were crushed and the radioactivity was extracted in extraction buffer (50 mM Tris-HCl, 150 mM NaCl, and 0.1 mM EDTA; pH 7.5) by vigorously shaking at 70° C. for 30 min. The data fitting was performed using the software Prism. Labeling results of eRF1 alone and within the eRF1.eRF3.GDPNP complex were fit with a one-site binding model and a two-site binding model, respectively.

[1] = molecular target: T2, eRF1.eRF3.GDPNP ternary complex (Saccharomyces cerevisiae, UniProt P12385); assay: [3H]-AzAt photoaffinity labeling of eRF1 within ternary complex; assay type: binding
T2 construct: made in house; host or cells: E. coli BL21(DE3) CodonPlus
T2 sequence (P05453 166-685): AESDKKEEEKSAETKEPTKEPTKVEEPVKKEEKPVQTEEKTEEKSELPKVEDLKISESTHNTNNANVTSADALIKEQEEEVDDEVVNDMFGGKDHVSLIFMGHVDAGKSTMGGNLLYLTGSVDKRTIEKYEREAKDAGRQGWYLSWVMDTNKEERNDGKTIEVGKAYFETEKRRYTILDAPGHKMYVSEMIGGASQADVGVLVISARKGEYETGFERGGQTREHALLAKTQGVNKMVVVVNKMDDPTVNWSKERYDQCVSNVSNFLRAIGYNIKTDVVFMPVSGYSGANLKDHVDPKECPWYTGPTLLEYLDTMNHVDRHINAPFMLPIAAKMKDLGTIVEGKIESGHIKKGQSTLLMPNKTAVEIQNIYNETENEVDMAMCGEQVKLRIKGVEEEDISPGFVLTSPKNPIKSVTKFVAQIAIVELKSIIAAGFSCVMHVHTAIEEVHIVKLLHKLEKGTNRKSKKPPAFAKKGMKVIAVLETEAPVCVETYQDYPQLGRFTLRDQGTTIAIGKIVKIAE
T2 sequence (P12385 whole entry): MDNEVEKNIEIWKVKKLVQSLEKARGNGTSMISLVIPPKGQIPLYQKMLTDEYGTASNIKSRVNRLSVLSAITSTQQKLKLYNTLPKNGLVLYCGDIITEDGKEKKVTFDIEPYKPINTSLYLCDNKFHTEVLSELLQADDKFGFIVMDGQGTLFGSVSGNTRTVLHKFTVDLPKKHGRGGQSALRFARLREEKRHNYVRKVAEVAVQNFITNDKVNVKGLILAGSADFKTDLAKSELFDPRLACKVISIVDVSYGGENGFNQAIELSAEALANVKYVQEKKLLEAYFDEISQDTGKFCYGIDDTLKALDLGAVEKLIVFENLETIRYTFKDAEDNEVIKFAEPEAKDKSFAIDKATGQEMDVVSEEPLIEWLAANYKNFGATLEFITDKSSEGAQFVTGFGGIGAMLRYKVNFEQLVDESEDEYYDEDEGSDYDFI
Method: as §1, §2

[2] = system: Small RNAs within Stop-POST5 complex; assay: AzAt photoincorporation into small RNAs (urea-PAGE, RNAse H fragments); assay type: binding, shrimp (Artemia salina)
Method: FIG. 11 illustrates 8% Urea-PAGE resolution of small RNAs.
as §1
Stop-POST5 and 80S-IRES complexes. 1 μM solutions of either Stop-POST5 or 80S-S.IRES, determined by A260, were photolabeled by [^3H]-AzAt. The sample was then either directly purified by ultracentrifugation through a sucrose cushion to determine the photoincorporation stoichiometry in the complex, or subjected to phenol/chloroform extraction to determine the photoincorporation stoichiometry in the total RNA. To determine the photoincorporation background arising from incomplete removal of noncovalently bound photolyzed AzAt, AzAt was prephotolysed for 5 min before adding to the complex, followed by the 20 min incubation in dark at 37° C. and subsequent sucrose cushion purification or RNA extraction as described above.
(§3) RNaseH Fragment Assay. Total RNA was prepared from the ^3H-AzAt photoaffinity labeled ribosome by phenol-chloroform extraction. RNA: DNA duplexes were formed by incubating total RNA (0.2 μM) with an oligonucleotide pair (1 μM of each, sequences shown Table 1), flanking a specific RNA region, in 22.8 μL of water at 95° C. for 2 min, followed by annealing at 50° C. for 30 s and quenching on ice. Six units (1.2 μL) of RNase H (NEB) and 6 μl of 5×RNase H Reaction Buffer were next added to the RNA: DNA duplex and incubated at 37° C. for 1 hour, followed by phenol-chloroform extraction of RNA. The digested RNA was separated on 12% TBE-Urea PAGE gel, and the target band along with the adjacent upper and bottom gels were sliced by a 2 mm gel cutter. The gel slices were crushed and the ^3H labeled rRNA fragment was extracted in water by vigorously shaking at 70° C. for 30 min, or by overnight extraction in elution buffer (0.3M sodium acetate, 0.25% SDS, 1 mM EDTA). The slurry was removed by centrifugation and the eluted ^3H labeled rRNA in the supernatant was quantified. The stoichiometry of AzAt photoincorporation was calculated based on a gel recovery yield of 20±2%, determined using an authentic sample of [^3H]-Gln-tRNA^Gln.
Small RNAs. AzAt photoincorporation into the 4 small RNAs (CrPV-IRES, 5.8S rRNA, 5S rRNA, and tRNA) contained within POST5 was examined by one-dimensional (1D) urea-PAGE analysis, by RNA-Seq, and by RNAse H fragment assay (FIG. 11).

[3] = system: rRNA fragments I-IV of Stop-POST5; assay: RNaseH fragment assay, Stop-POST5; assay type: binding, shrimp (Artemia salina)
Method: as §3
Testing the functional pertinence of AzAt photolabeling of 18S A1195, 28S-A3093, 28S-A2672, and 28S-2669. An RNAse H fragment assay was employed to determine whether the potential functionally significant sites identified by LASER-seq correspond to ataluren binding sites relevant for termination activity. In this assay, oligonucleotide hybridization, RNase H digestion and polyacrylamide gel electrophoresis (PAGE) were used to determine the stoichiometry of [^3H]-AzAt photoincorporation into the three rRNA fragments that together include the four nucleotides of interest: Fragment I, 18S-A1195; Fragment II, 26S-A3093; Fragment III, 26S-A2669 and 26S-A2672 (Table 5). The separate addition of four potential competitors of AzAt binding (eRF1 alone, the stably bound eRF1.eRF3.GDPNP complex, ataluren, and the ataluren-like TRID GJ072) was used to test how these affected such photoincorporation. These experiments, the results of which are summarized in Table 5, were performed at two different AzAt concentrations. eRF1 and eRF1.eRF3.GDPNP effects were measured using 300 μM AzAt, paralleling the LASER-Seq PAL experiments.

[4] = PAL, 30 μM AzAt, alone (AzAt) or plus competing ligand named as label (Ataluren 500 μM, GJ072 150 μM)
[5] = PAL, 30 μM AzAt, alone or plus competing ligand named as label
[6] = Stop-POST5, PAL, 30 μM AzAt, alone or plus Ataluren 500 μM / GJ072 150 μM named as label
[7] = PAL, 300 μM AzAt, alone or plus competing ligand named as label
[8] = Stop-POST5, PAL, 300 μM AzAt, alone or plus competing ligand named as label
[9] = Stop-POST5, PRE, 300 μM prephotolysed AzAt

T1 sequence (P12385 whole entry): as above

O=C(O)c1cccc(-c2noc(-c3ccccc3F)n2)c1 [Ataluren]
effect on AzAt photoincorporation into isolated eRF1 (eRF1; FIG. 2E): substantially inhibited | inhibition of AzAt photoincorporation into eRF1 within the ternary complex ([1]; compared with isolated eRF1, FIG. 2E): less marked | Photoincorporation yields into CrPV-IRES nts1-155 [2, 4]: 0.40 ± 0.13 mole % | Photoincorporation yields into 5S rRNA [2, 5]: 0.15 ± 0.01 mole % | Photoincorporation yields into 5.8S rRNA [2, 5]: 0.19 ± 0.01 mole % | Photoincorporation yields into CrPV-IRES All [2, 5]: 0.76 ± 0.05 mole % | Photoincorporation yields into CrPV-IRES nts156-221 [2, 5]: 0.17 ± 0.03 mole % | Photoincorporation yields into CrPV-IRES nts222-278 [2, 5]: 0.07 ± 0.06 mole % | Photoincorporation yields into tRNA^Gln [2, 5]: 0.22 ± 0.03 mole % | effect on AzAt labeling of CrPV-IRES fragments 1-155 and 156-221 ([2]; RNAse H fragment assay): no clearly significant changes | effect on AzAt labeling of small RNAs ([2]; none clearly significant): generally small reductions | effect on AzAt photoincorporation into Fragment IV (26S A1437/A1438) [3]: neither ataluren nor GJ072 reduce labeling at all | effect on AzAt photoincorporation into Fragment I (18S-A1195) ([3]; Stop-POST5): strongly inhibits | effect on AzAt photoincorporation into Fragment II (A3093) ([3]; Stop-POST5): stimulated | effect on AzAt photoincorporation into Fragment III (A2669/A2672) ([3]; Stop-POST5): only weakly inhibited | Photoincorporation yields into 18S A1195/ I: 18S 1151-1206 [3, 6]: 0.06 ± 0.01 mole % | Photoincorporation yields into 26S-A2669:A2672/ III: 26S 2638-2702 [3, 6]: 0.10 ± 0.04 mole % | Photoincorporation yields into 26S-A3093/ II: 26S 3069-3113 [3, 6]: 0.06 ± 0.01 mole % | Photoincorporation yields into RNAse H Fragment IV: 26S 1413-1476 [3, 6]: 0.034 ± 0.006%

[N-]=[N+]=Nc1ccc(-c2nc(-c3cccc(C(=O)O)c3)no2)cc1 [AzAt]
Kd (eRF1; hyperbolic saturation curve, read-out: Kd, photoincorporation into isolated eRF1): 110 ± 20 µM | Kd ([1]; two-site model, read-out: Kd, tight site photoincorporation into eRF1 within ternary complex): 90 ± 20 µM | Photoincorporation yields into CrPV-IRES nts1-155 [2, 4]: 0.56 ± 0.04 mole % | Photoincorporation yields into 5S rRNA [2, 5]: 0.19 ± 0.01 mole % | Photoincorporation yields into 5.8S rRNA [2, 5]: 0.25 ± 0.01 mole % | Photoincorporation yields into CrPV-IRES All [2, 5]: 0.85 ± 0.14 mole % | Photoincorporation yields into CrPV-IRES nts156-221 [2, 5]: 0.23 ± 0.08 mole % | Photoincorporation yields into CrPV-IRES nts222-278 [2, 5]: 0.06 ± 0.04 mole % | Photoincorporation yields into tRNA^Gln [2, 5]: 0.30 ± 0.04 mole % | Photoincorporation yields into CrPV-IRES nts1-155 ([2]; PAL, 300 μM AzAt, alone (AzAt) or plus competing ligand named as label (eRF1 2 μM, eRF3 4 μM, GDPNP 1 mM)): 7.6 ± 1.5 mole % | Photoincorporation yields into 5S rRNA [2, 7]: 1.62 ± 0.11 mole % | Photoincorporation yields into 5.8S rRNA [2, 7]: 0.89 ± 0.10 mole % | Photoincorporation yields into CrPV-IRES All [2, 7]: 7.3 ± 0.5 mole % | Photoincorporation yields into CrPV-IRES nts156-221 [2, 7]: 3.2 ± 0.8 mole % | Photoincorporation yields into CrPV-IRES nts222-278 [2, 7]: 0.02 ± 0.03 mole % | Photoincorporation yields into tRNA^Gln [2, 7]: 2.3 ± 0.2 mole % | Photoincorporation yields into 5S rRNA ([2]; PRE, 300 μM prephotolysed AzAt): 0.02 ± 0.01 mole % | Photoincorporation yields into 5.8S rRNA ([2]; PRE, 300 μM prephotolysed AzAt): 0.02 ± 0.01 mole % | Photoincorporation yields into CrPV-IRES All ([2]; PRE, 300 μM prephotolysed AzAt): 0.02 ± 0.01 mole % | Photoincorporation yields into CrPV-IRES nts1-155 ([2]; PRE, 300 μM prephotolysed AzAt): 0.02 ± 0.01 mole % | Photoincorporation yields into CrPV-IRES nts156-221 ([2]; PRE, 300 μM prephotolysed AzAt): 0.05 ± 0.04 mole % | Photoincorporation yields into CrPV-IRES nts222-278 ([2]; PRE, 300 μM prephotolysed AzAt): 0.03 ± 0.01 mole % | Photoincorporation yields into tRNA^Gln ([2]; PRE, 300 μM prephotolysed AzAt): 0.41 ± 0.09 mole % | saturating value of photo-incorporation into Fragment II ([3]; FIG. 7B): 0.8% | saturating value of photo-incorporation into Fragment III ([3]; FIG. 7B): 0.8% | Photoincorporation yields into 18S A1195/ I: 18S 1151-1206 [3, 6]: 0.26 ± 0.03 mole % | Photoincorporation yields into 26S-A2669:A2672/ III: 26S 2638-2702 [3, 6]: 0.13 ± 0.04 mole % | Photoincorporation yields into 26S-A3093/ II: 26S 3069-3113 [3, 6]: 0.03 ± 0.01 mole % | Photoincorporation yields into RNAse H Fragment IV: 26S 1413-1476 [3, 6]: 0.020 ± 0.003% | Photoincorporation yields into 26S-A2669:A2672/ III: 26S 2638-2702 [3, 8]: 1.07 ± 0.14 mole % | Photoincorporation yields into 26S-A3093/ II: 26S 3069-3113 [3, 8]: 0.40 ± 0.01 mole % | Photoincorporation yields into RNAse H Fragment IV: 26S 1413-1476 ([3]; Stop-POST5, PAL, 300 μM AzAt, alone or plus competing ligand named as label (eRF1 2 μM, eRF3 4 μM, GDPNP 1 mM)): 0.29 ± 0.03% | Photoincorporation yields into 18S A1195/ I: 18S 1151-1206 ([3]; Stop-POST5, PAL, 300 μM AzAt, alone or plus competing ligand named as label (eRF1 2 μM, eRF3 4 μM, GDPNP)): 1.55 ± 0.20 mole % | Photoincorporation yields into 18S A1195/ I: 18S 1151-1206 [3, 9]: 0.012 ± 0.003 mole % | Photoincorporation yields into 26S-A2669:A2672/ III: 26S 2638-2702 [3, 9]: 0.03 ± 0.02 mole % | Photoincorporation yields into 26S-A3093/ II: 26S 3069-3113 [3, 9]: 0.04 ± 0.01 mole % | KA, photoincorporation into Fragments II and III (PTC) ([3]; fit to eq (1)): 200 ± 40 µM | Kd ([3]; simple hyperbolic binding isotherm, FIG. 7A, read-out: apparent KD, photoincorporation into Fragment I (18S-A1195)): 240 ± 10 µM
